US10493046B2, “5-hydroxytryptamine 1B receptor-stimulating agent for use as a promoter of satellite cells self-renewal and/or differentiation” (INSTITUT PASTEUR, priority 2015, dated 2019)

What was measured:
satellite cells [1] = assay: Satellite cells in vitro in plasma of treated mice (live videomicroscopy, immunostaining); type: cell-based, mouse; conditions: for Reserve cells (quiescent Pax7 positive cells) 14 days post-plating: plasma from fluoxetine-treated animals
Method: (§1) Muscle dissection was done as previously described in cold DMEM. Muscles were then chopped with small scissors and put in a 50 ml Falcon tube with collagenase 0.1% and trypsin 0.25% at 37° C. with gentle agitation. After 20 minutes, the supernatant was collected in 20% serum placed on ice, and the collagenase/trypsin solution was added to continue the digestion. Once muscle was completely digested, the solution was filtrated using 40 μm cell strainers. Satellite cells were cultured in 1:1 DMEM-Glutamax (Gibco#41965-039):MCDB201 (Sigma#M6770) containing 20% serum FBS (Biowest S1860). Medium was filtered using 0.22 μm filters. Cells were plated on Matrigel coating (BD Biosciences#354234) and kept in an incubator (37° C., 5% CO2). […] The thus-obtained supernatant replaced FBS in the culture medium; the rest of the medium was unchanged.
Cells isolated by FACS were plated overnight on a 24-well glass bottom plate (P24G-0-10-F; MatTek) coated with matrigel (BD Biosciences#354234) and placed in an incubator in pre-equilibrated medium (1:1 DMEM Glutamax: MCDB [Sigma-Aldrich], 20% FCS (Biowest S1860). The plate was then incubated at 37° C., 5% CO2 (Zeiss, Pecon). A Zeiss Observer.Z1 connected with a LCI PInN 10×/0.8 W phaseII objective and AxioCam camera piloted with AxioVision was used. Cells were filmed for up to 5 days, and images were taken every 30 min with brightfield and phase filters and MozaiX 3×3 (Zeiss). Raw data were transformed and presented as a video.
Those results were confirmed in vitro (FIG. 7a). […] This difference was lost when SC were plated with GR127935 (p=0.4) (FIG. 7e). The faster exit of quiescence and higher division rates were also lost when adding GR127935 in vitro (FIGS. 7f,g). The effects of the plasma from fluoxetine-treated animals were persistent when adding MDL100907 (FIGS. 7b-g).

satellite cells [2] = assay: FACS-sorted satellite cells in vitro, compound added to the culture medium; type: cell-based, mouse
Method: as §1
Satellite cells were isolated from Tg:Pax7nGFP mice and cells were plated at 2.000 cells per cm^2. After overnight, vortioxetine was added at 10 μM. […] 14 days post-plating, a higher number of reserve cells (Pax7 positive cells that are quiescent in vitro) were detected in the vortioxetine-treated cells (9%±0.7) than in the PBS (3.5%±0.9, p=0.01), and when GR127935 inhibitor was added in vitro the number of reserve cells dropped (3.5%±0.9, p=0.9) (FIG. 11c). […] This difference in expression was lost when SC were plated with the GR127935 5-HT1 BR inhibitor (p=0.4) (FIGS. 11c-e). The positive effects of vortioxetine were lost when GR127935 was added in vitro together with vortioxetine (FIGS. 11c-e). These effects were however persistent when adding the 5-HT2 BR antagonist (FIGS. 11c-e). This means that the positive effects observed when plating vortioxetine in vitro with satellite cells is mediated via the 5HT1B receptor and not 5HT2B.
To test whether, 2 derivatives of vortioxetine, namely histidine-vortioxetine and pyrrolidinium-vortioxetine, could have similar or improved effect compared to the unmodified vortioxetine, the in vitro approach as described in section 2.2.3 above was used and the differentiation cascade of satellite cells was investigated by assessing the expression pattern of Pax7 (a marker of stemness and quiescence) and Myogenin (MyoG, a marker of differentiation) as described above in section 2.2.3. To do so, satellite cells from Tg:Pax7-nGFP were isolated by FACS and plated at 2.000 cells per cm^2 (seeded overnight). The following day, the vortioxetine, its derivatives, or the control PBS was added at 10 μM and the cells were fixed at the indicated time points.

Mdx mice = assay: Grip strength test in mdx mice; type: in vivo, mouse; conditions: fluoxetine treated mdx mice, 6 weeks; 4 limbs
Method: The grip strength test is a non-invasive method designed to evaluate mouse muscle force in vivo. A grip meter (Bio-GT3, BIOSEB), attached to a force transducer, measures the peak force generated. […] Five trials were conducted and, before statistical analysis, a mean value was calculated for each mouse using the tree median data. Results are expressed as the result of tree peak forces (in g), normalized to the body weight (in g).
(§2) This was confirmed on soleus muscle (data not shown).

cytokines = assay: Plasmatic cytokine levels by Luminex in treated mice; design: species or system mouse; conditions: fluoxetine 6 weeks in vivo; vs placebo
Text: Snap frozen plasma samples (n=6 per condition) were thawed out, and supernatant was processed for Luminex® multiple cytokine and chemokine analysis (Bio-Plex® Pro™ Mouse Cytokine Standard 23-Plex, Group I and Standard 9-Plex, Group II). Normalization was done by sample weight of frozen muscle. […]

[3] = tested on: extensor digitorum longus (edl) fibers; assay: Tension of isolated muscle fibers of mdx mice; type: in vivo, mouse; conditions: fluoxetine treated mdx mice
Method: Small bundles of two to five fibers were manually isolated from the muscles as previously described. Chemical skinning was carried out using Triton X-100. Skinned fibers were mounted in the Displacement Measuring System KD 2300 (model 0.5 SU, Kaman Instrumentation, Colorado Springs, Colo., USA). To perform force measurements, skinned fiber preparations were incubated for 1 h in relaxing solution (pCa 9.0, low calcium content) containing 1% Triton X-100 (v/v) to solubilize the sarcolemma and the sarcoplasmic reticulum membranes, and were subsequently washed several times in relaxing solution without detergent. Fibres were adjusted to slack length and then stretched progressively until the tension developed became maximal. Isometric tension was recorded continuously using a chart recorder (model 1200, Linear, Reno, Nev., USA). The tension obtained was normalized to fibre cross-sectional area.
as §2

primary human myoblasts = assay: Primary human myoblasts plated in plasma from treated mice; type: cell-based; conditions: plasma from fluoxetine-treated mice
CD31 expressing cells = assay: Ex vivo Matrigel angiogenesis assay (subcutaneous plugs); type: in vivo, mouse; conditions: C57Bl/6 treated P.O for 6 weeks
Text: To further confirm the above results, an ex vivo Matrigel angiogenesis assay was used. To do so, a cold Matrigel was introduced subcutaneously, which solidifies and allows the penetration by host cells and the formation of new blood vessels in C57Bl/6 treated P.O for 6 weeks.

HUVEC = assay: In vitro HUVEC assay on cytodex beads in plasma of treated mice; type: cell-based, human; conditions: plasma from mice treated P.O 6 weeks; 4 days post plating
Method: C57Bl/6 mice were treated P.O for 6 weeks and plasma was extracted from blood. HUVEC cells were then plated on cytodex beads and cultured in either of the plasma. The growth of HUVEC incubated with plasma coming from treated animals was faster 4 days post plating (p≤0.0001) (FIGS. 2m-o).

[4] = 20% plasma from fluoxetine treated C57Bl/6 mice, live-videomicroscopy

COc1ccc(NC(=O)c2ccc(-c3ccc(-c4noc(C)n4)cc3C)cc2)cc1N1CCN(C)CC1 [GR127935]
Pax7 positive cells 4 days post-plating (satellite cells [1]; plasma from fluoxetine treated animals incubated with GR127935): 35.25%
Reserve cells (quiescent Pax7 positive cells) 14 days post-plating (satellite cells [1]; GR127935 added in vitro): 4.5%
MyoG expression difference when plated with GR127935 (satellite cells [1]; plasma from fluoxetine-treated mice plus GR127935): lost
Faster exit of quiescence and higher division rates when adding GR127935 (satellite cells [1]; plasma from fluoxetine-treated mice plus GR127935 in vitro): lost
Positive effects of vortioxetine (incl. MyoG expression difference) when GR127935 added (satellite cells [2]; GR127935 added in vitro together with vortioxetine 10 μM): lost
Pax7 positive cells 4 days post-plating (satellite cells [2]; vortioxetine 10 μM incubated with the GR127935 inhibitor): 25.5%
Reserve cells (quiescent Pax7 positive cells) 14 days post-plating (satellite cells [2]; vortioxetine 10 μM, GR127935 inhibitor added in vitro): 3.5%

CNCCC(Oc1ccc(C(F)(F)F)cc1)c1ccccc1 (stereo not shown) [fluoxetine]
Total muscle force increase (Mdx mice): 56%
Levels of IL-1a, IL-1b, IL-2 and eotaxin (cytokines): downregulated
Levels of IL-4 and IL-13 (cytokines): upregulated
Myogenine positive cells 4 days post-plating (satellite cells [1]; 20% plasma from fluoxetine treated C57Bl/6 mice): 34.75±6.3 % of total plated cells
Division rate (satellite cells [1]; [4]): 8.7 ± 0.7 h
First satellite cells division, time post-plating (satellite cells [1]; [4]): 26.45 h
Pax7 positive cells 4 days post-plating (satellite cells [1]; plasma from fluoxetine treated animals): 24%
Reserve cells (quiescent Pax7 positive cells) 14 days post-plating (satellite cells [1]): 9.4%
Myogenin (MyoG) expression increase (satellite cells [1]; plasma from fluoxetine-treated mice vs placebo): 3 times increase
MyoD (activation marker) expression between conditions (satellite cells [1]; plasma from fluoxetine-treated mice vs placebo vs GR127935): did differ at any time investigated
Force increase of isolated single fibers of extensor digitorum longus (edl) [3]: 45%
Differentiation 4 days post-plating vs placebo plasma (primary human myoblasts): faster differentiation
Self-renewal of the cells 14 days post-plating vs placebo plasma (primary human myoblasts): higher self-renewal
Number of CD31 expressing cells in Matrigel plugs (CD31 expressing cells): 72.9±22.6 CD31+ cells per mm^2
Growth of HUVEC vs placebo plasma (HUVEC): faster
